Test results from US5391800A, “Method for inhibition of cell motility by sphingosine-1-phosphate, its derivatives and mimetics and method of synthesizing sphingosine-1-phosphate and its derivatives” (The Biomembrane Institute, priority 1993, dated 1995).

Columns and labels:
[1] = test system: PKC of B16/F1 melanoma cells; experiment: PKC activity of B16/F1 melanoma cells (32P incorporation into histone IIIS); type: biochemical, mouse; conditions: concentration not given
Experimental: Effects of SPN derivatives on protein kinase C activity and cell growth of B16/F1 cells was also investigated. […] Toxicity of these compounds to B16/F1 cells and human neutrophils was also examined using a trypan blue exclusion assay after 1 hour incubation with the compounds.
*Mean ± S.E. (n = 3). For controls (defined as 100%), PKC activity was
33225 cpm per tube per 20 min, as measured by ^32 P incorporation int

B16/F1 melanoma cells [2] = experiment: Growth of B16/F1 melanoma cells (cell count after 48 hr); type: cell-based, mouse; conditions: Mus musculus, B16-F1; 10 μM; 48 hr; control = 100%; mean ± S.E., n = 3
Experimental: *Mean ± S.E. (n = 3). For controls (defined as 100%), cell number was
10^5 cells were seeded and
cultured on a 35 mm plastic dish in Dulbecco's modified Eagle's medium
containing 2% fetal bovine serum in the presence or absence of SPN
derivatives. 48 hr later, cells were counted.

B16/F1 melanoma cells [3] = experiment: Chemoinvasion of B16/F1 cells through thick MATRI-GEL layer on transwell filter; type: cell-based, mouse; conditions: percent relative to control; mean ± S.E., n = 3 or 4; concentration not given; 4200 min
Experimental: (§1) The assays for determining chemotactic cell motility and chemoinvasion can be performed using transwell plates with a polycarbonate membrane filter (pore size 8 μm) (Costar Scientific, Cambridge, Mass.). Aliguots, e.g., 50 μl, of an aqueous solution of MATRI-GEL (Collaborative Research, Bedford, Mass.) containing SPN-1-P or other inhibitor (e.g., 20 μg/ml for chemotactic motility assay or 200 μg/ml for chemoinvasion assay), is added to each well and dried overnight. The filter is then fitted onto the lower chamber plate. The lower chamber can contain conditioned medium (CM) (i.e., medium used for splenic stromal cell culture, and containing motility factor secreted by these cells), e.g., 0.6 ml, with or without SPN-1-P or other inhibitor. To the upper chamber is added, e.g., about 100 μl, of cell suspension (5×10^4 cells/ml for invasion assay, 5×10^5 cells/ml for motility assay), which is then incubated in 5% CO2 at 37° C. for 70-72 hours (invasion assay) or 20 hours (motility assay). After incubation, cells remaining in the upper chamber are wiped off with a cotton swab, and cells which had migrated to the lower chamber side of the filter are fixed in methanol for 30 seconds and stained with 0.05% toluidine blue. The filter is removed, the stain is solubilized in 10% acetic acid (e.g., 0.1 ml for invasion assay, 0.5 ml for motility assay), and color intensity (optical density) is quantitated by ELISA reading at 630 nm. Using SPN-1-P, a linear relationship was observed between cell number and toluidine blue optical density (FIG. 7).
(§2) Assays were performed using transwell plates with polycarbonate membrane filters (pore size 8 μm) (Costar Scientific, Cambridge, Mass.). 50 μl aliguots of an aqueous solution of MATRI-GEL (Collaborative Research, Bedford, Mass.) containing 20 μg/ml (for chemotactic motility assay) or 200 μg/ml (for chemoinvasion assay) were added to each well and dried overnight. The filter was fitted onto the lower chamber plate. The lower chamber contained 0.6 ml conditioned medium (CM) (i.e., medium used for splenic stromal cell culture, and containing motility factor secreted by these cells) with or without the suspected inhibitor. To the upper chamber was added 100 μl of cell suspension (5×10^4 cells/ml for invasion assay, 5×10^5 cells/ml for motility assay), which was then incubated in 5% CO2 at 37° C. for 70-72 hours (invasion assay) or 20 hours (motility assay). After incubation, cells remaining in the upper chamber were wiped off with a cotton swab, and cells which had migrated to the lower chamber side of the filter were fixed in methanol for 30 seconds and stained with 0.05% toluidine blue. The filter was removed, the stain was solubilized in 10% acetic acid (0.1 ml for invasion assay, 0.5 ml for motility assay), and color intensity (optical density) was quantitated by ELISA reading at 630 nm. A linear relationship was observed between cell number and toluidine blue optical density (FIG. 7.).
Chemoinvasion was measured by the ability of tumor cells in CM (as described above) to migrate through a thick layer of MATRI-GEL during a prolonged incubation period (70 hours). This property is distinct from chemotactic cell motility, which involves a much shorter incubation period (20 hours) and a thin layer of MATRI-GEL. For the chemoinvasion assay, 10 μg of MATRI-GEL was applied to a polycarbonate transwell filter and migration was observed following 70 hours incubation (based on results shown in FIG. 8).

B16/F1 melanoma cells [4] = experiment: Chemotactic motility of B16/F1 cells through MATRI-GEL-coated transwell filter; type: cell-based, mouse; conditions: percent relative to control; mean ± S.E., n = 3 or 4; concentration not given
Experimental: as §1, §2
In experiments with different quantities of MATRI-GEL, cell migration through transwell filter was maximal with 1 μg/well was applied, and when CM was used (FIG. 8). Therefore, chemotactic cell motility, as affected by various SPN derivatives, was assayed under these conditions.
*Mean ± S.E. of percent relative to control (n = 4). Actual O.D. value
and 0.147 (HT1080). 6 × 10^4 cells were placed on a transwell
filter coated with 1.0 μg MATRIGEL in the upper chamber, and cultured
for 18 hours in the presence of CM and SPN1-P in the lower chamber.

human neutrophils = experiment: Phagokinetic activity of human neutrophils on gold sol-coated plates; type: cell-based; conditions: 4.5 μM; 2 hours; mean ± S.D.; control 6.3 ± 2.3
Experimental: Phagokinetic activity is measured by the ability of cells to ingest foreign particles while moving. Cell motility can be estimated as the area of a phagokinetic track on gold sol particle-coated plates as previously described {Albrecht-Buehler, Cell, 11:395 (1977)}. A uniform coating of gold particles is prepared on glass coverslips precoated with bovine serum albumin, and coverslips are rinsed repeatedly to remove non-adhering or loosely-adhering gold particles. Freshly-prepared neutrophils or tumor cells detached from culture are placed in a Petri dish containing the gold sol-coated plate, and incubated for about 2 hours (for human neutrophils) or about 18 hours (for tumor cells). The coverslips are fixed for 1 hour in a 4% formaldehyde solution in phosphate-buffered saline (PBS) and mounted on microscope slides. The phagokinetic tracks are observed on a television connected to a light microscope (Nikon, Tokyo, Japan). Tracks on the television are transferred to translucent sheets, which are then photocopied. Phagokinetic activity is quantitated by cutting and weighing the swept area in the copy.
Cell motility was estimated as the area of phagokinetic track on gold sol particle-coated plates as previously described {Albrecht-Buehler, Cell, 11:395 (1977)}. A uniform coating of gold particles was prepared on glass coverslips precoated with bovine serum albumin, and the coverslips were rinsed repeatedly to remove non-adhering or loosely-adhering gold particles. Freshly-prepared neutrophils or tumor cells detached from culture were placed in a Petri dish containing the gold sol-coated plate, and incubated for 2 hours (for human neutrophils) or 18 hours (for tumor cells). The coverslips were fixed for 1 hour in 4% formaldehyde solution in phosphate-buffered saline (PBS) and mounted on microscope slides. The phagokinetic tracks were observed on a television connected to a light microscope (Nikon, Tokyo, Japan). Tracks on the television were transferred to translucent sheets, which were then photocopied. Phagokinetic activity was quantitated by cutting and weighing the swept area in the copy.
**mean ± S.D. Freshlyprepared neutrophils (1 × 10^4
cell/plate) were seeded on a coverslip precoated with gold sol particles
in the presence or absence of test compound. 2 hours later, incubation wa
terminated by adding 200 μl of 10% formaldehyde and the cleared area
was estimated as described in the text.

| Molecule | PKC inhibition [1] | activity at 10 µM (B16/F1 melanoma cells [2]) [%] | % invasion (B16/F1 melanoma cells [3]) [%] | % motility (B16/F1 melanoma cells [4]) [%] | Cleared area (human neutrophils) |
| --- | --- | --- | --- | --- | --- |
| CCCCCCCCCCCCC/C=C/[C@@H](O)[C@H](CO)N(C)C [DMS, N,N-dimethylsphingosine] | in striking contrast to DMS and TMS, SPN-1-P does not inhibit PKC | – | – | – | – |
| CCCCCCCCCCCCC/C=C/[C@@H](O)[C@H](CO)NC(C)=O [N-acetyl-SPN] | – | 102 ± 4 | 96 ± 14 | 99 ± 16 | – |
| NCCO [ethanolamine] | – | – | 140 ± 41 | 85 ± 13 | – |
| NCCOP(=O)(O)O [phosphoethanolamine] | – | – | 160 ± 57 | 86 ± 20 | 5.9 ± 2.5 × 10^3 μm^2 |
| ceramide | – | – | – | – | 5.7 ± 3.0 × 10^3 μm^2 |
| ceramide monohexoside [CMH] | – | – | 178 ± 70 | 162 ± 29 | – |
| phosphatidylethanolamine | – | – | 104 ± 37 | 107 ± 18 | – |
| sphingomyelin | – | – | 138 ± 18 | 82 ± 11 | – |
